Measurements from paper PMC10394814, “Discovery and evaluation of active compounds from Xuanfei Baidu formula against COVID-19 via SARS-CoV-2 M^pro” (Chinese Medicine, 2023).
pEC50: −log10 of the molar value.

How the values were obtained:
Omicron BA.1.1 variant = experiment: Antiviral activity assay (CPE) in Vero E6 cells, Omicron BA.1.1; type: cell-based, SARS-CoV-2
Omicron BA.2.3 variant = experiment: Antiviral activity assay (CPE) in Vero E6 cells, Omicron BA.2.3; type: cell-based, SARS-CoV-2

Molecule `Cn1cnc(Cn2c(=O)[nH]/c(=N\c3cc4cn(C)nc4cc3Cl)n(Cc3cc(F)c(F)cc3F)c2=O)n1` [S-217622, reference compound] has a pEC50 (Omicron BA.1.1 variant) of 6.92 and a pEC50 (Omicron BA.2.3 variant) of 6.63.
